Experimental data taken from PubChem BioAssay (NCI).
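Briefly, cells in 96-well plates were exposed to five compound concentrations for 48 h, and endpoints were estimated by linear interpolation. TGI marks complete inhibition of growth.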

How the values were obtained:
Assay in all cases: growth of human tumour cells (NCI), 48 h
SW-620 colon = test system: SW-620 colon
HS 578T breast = test system: HS 578T breast
OVCAR-3 ovarian = test system: OVCAR-3 ovarian
OVCAR-4 ovarian = test system: OVCAR-4 ovarian
LOX IMVI melanoma = test system: LOX IMVI melanoma
SNB-19 CNS = test system: SNB-19 CNS
786-0 renal = test system: 786-0 renal
K-562 leukemia = test system: K-562 leukemia
UACC-62 melanoma = test system: UACC-62 melanoma
SK-MEL-2 melanoma = test system: SK-MEL-2 melanoma
T-47D breast = test system: T-47D breast
MDA-N = test system: MDA-N
SN12C renal = test system: SN12C renal
SK-OV-3 ovarian = test system: SK-OV-3 ovarian
MOLT-4 leukemia = test system: MOLT-4 leukemia
MALME-3M melanoma = test system: MALME-3M melanoma
UACC-257 melanoma = test system: UACC-257 melanoma
PC-3 prostate = test system: PC-3 prostate
M14 melanoma = test system: M14 melanoma
IGROV1 ovarian = test system: IGROV1 ovarian
SR leukemia = test system: SR leukemia
HOP-92 NSCLC = test system: HOP-92 NSCLC
MDA-MB-435 = test system: MDA-MB-435
EKVX NSCLC = test system: EKVX NSCLC
CAKI-1 renal = test system: CAKI-1 renal
SNB-75 CNS = test system: SNB-75 CNS
NCI/ADR-RES ovarian = test system: NCI/ADR-RES ovarian
HCT-116 colon = test system: HCT-116 colon
UO-31 renal = test system: UO-31 renal
OVCAR-5 ovarian = test system: OVCAR-5 ovarian
BT-549 breast = test system: BT-549 breast
CCRF-CEM leukemia = test system: CCRF-CEM leukemia
A549 NSCLC = test system: A549 NSCLC
COLO 205 colon = test system: COLO 205 colon
U251 CNS = test system: U251 CNS
ACHN renal = test system: ACHN renal
TK-10 renal = test system: TK-10 renal
SF-295 CNS = test system: SF-295 CNS
MDA-MB-231 breast = test system: MDA-MB-231 breast
NCI-H460 lung = test system: NCI-H460 lung
HCT-15 colon = test system: HCT-15 colon
SF-539 CNS = test system: SF-539 CNS
NCI-H23 lung = test system: NCI-H23 lung
NCI-H226 lung = test system: NCI-H226 lung
SK-MEL-28 melanoma = test system: SK-MEL-28 melanoma
MCF7 breast = test system: MCF7 breast
RPMI-8226 leukemia = test system: RPMI-8226 leukemia
HL-60(TB) leukemia = test system: HL-60(TB) leukemia
DU-145 prostate = test system: DU-145 prostate
SK-MEL-5 melanoma = test system: SK-MEL-5 melanoma
A498 renal = test system: A498 renal
KM12 colon = test system: KM12 colon
HT29 colon = test system: HT29 colon
SF-268 CNS = test system: SF-268 CNS
OVCAR-8 ovarian = test system: OVCAR-8 ovarian
HOP-62 NSCLC = test system: HOP-62 NSCLC
NCI-H522 lung = test system: NCI-H522 lung
RXF 393 renal = test system: RXF 393 renal

Cc1cc(Cc2cc(C)cc(C(C)(C)C)c2O)c(O)c(Cc2cc(C)cc(C(C)(C)C)c2O)c1
TGI (SW-620 colon): 16.7 µM | TGI (HS 578T breast): 5.93 µM | TGI (OVCAR-3 ovarian): 10.4 µM | TGI (OVCAR-4 ovarian): 11.7 µM | TGI (LOX IMVI melanoma): 10.9 µM | TGI (SNB-19 CNS): 15.7 µM | TGI (786-0 renal): 9.09 µM | TGI (K-562 leukemia): 6.33 µM | TGI (UACC-62 melanoma): 4.53 µM | TGI (SK-MEL-2 melanoma): 6.7 µM | TGI (T-47D breast): 11.3 µM | TGI (MDA-N): 11.9 µM | TGI (SN12C renal): 8.28 µM | TGI (SK-OV-3 ovarian): 10.9 µM | TGI (MOLT-4 leukemia): 5.83 µM | TGI (MALME-3M melanoma): 5.13 µM | TGI (UACC-257 melanoma): 5.3 µM | TGI (PC-3 prostate): 9.12 µM | TGI (M14 melanoma): 7.26 µM | TGI (IGROV1 ovarian): 14 µM | TGI (SR leukemia): > 28.6 µM | TGI (HOP-92 NSCLC): 9.36 µM | TGI (MDA-MB-435): 8.57 µM | TGI (EKVX NSCLC): 9 µM | TGI (CAKI-1 renal): 13.5 µM | TGI (SNB-75 CNS): 14.2 µM | TGI (NCI/ADR-RES ovarian): 12.6 µM | TGI (HCT-116 colon): 5.44 µM | TGI (UO-31 renal): 10.4 µM | TGI (OVCAR-5 ovarian): 14.2 µM | TGI (BT-549 breast): 10.6 µM | TGI (CCRF-CEM leukemia): 8.31 µM | TGI (A549 NSCLC): 11.3 µM | TGI (COLO 205 colon): 9.17 µM | TGI (U251 CNS): 10.3 µM | TGI (ACHN renal): 11.3 µM | TGI (TK-10 renal): 8.59 µM | TGI (SF-295 CNS): 10.1 µM | TGI (MDA-MB-231 breast): 4.25 µM | TGI (NCI-H460 lung): 4.22 µM | TGI (HCT-15 colon): 11.3 µM | TGI (SF-539 CNS): 6.54 µM | TGI (NCI-H23 lung): 5.34 µM | TGI (NCI-H226 lung): 11.5 µM | TGI (SK-MEL-28 melanoma): 16.7 µM | TGI (MCF7 breast): 7.93 µM | TGI (RPMI-8226 leukemia): > 20.4 µM | TGI (HL-60(TB) leukemia): 5.23 µM | TGI (DU-145 prostate): 13.7 µM | TGI (SK-MEL-5 melanoma): 2.62 µM | TGI (A498 renal): 7.2 µM | TGI (KM12 colon): 10 µM | TGI (HT29 colon): 7.78 µM | TGI (SF-268 CNS): 9.92 µM | TGI (OVCAR-8 ovarian): 15.1 µM | TGI (HOP-62 NSCLC): 7.94 µM | TGI (NCI-H522 lung): 4.28 µM | TGI (RXF 393 renal): 8.21 µM

CC(C)(C)C(=O)CP(=O)(O)O
TGI (SW-620 colon): > 100 µM | TGI (HS 578T breast): > 100 µM | TGI (OVCAR-3 ovarian): > 100 µM | TGI (OVCAR-4 ovarian): > 100 µM | TGI (LOX IMVI melanoma): > 100 µM | TGI (SNB-19 CNS): > 100 µM | TGI (786-0 renal): > 100 µM | TGI (K-562 leukemia): > 100 µM | TGI (UACC-62 melanoma): > 100 µM | TGI (SK-MEL-2 melanoma): > 100 µM | TGI (T-47D breast): > 100 µM | TGI (MDA-N): > 100 µM | TGI (SN12C renal): > 100 µM | TGI (SK-OV-3 ovarian): > 100 µM | TGI (MOLT-4 leukemia): > 100 µM | TGI (MALME-3M melanoma): > 100 µM | TGI (UACC-257 melanoma): > 100 µM | TGI (PC-3 prostate): > 100 µM | TGI (M14 melanoma): > 100 µM | TGI (IGROV1 ovarian): > 100 µM | TGI (SR leukemia): > 100 µM | TGI (HOP-92 NSCLC): > 100 µM | TGI (MDA-MB-435): > 100 µM | TGI (EKVX NSCLC): > 100 µM | TGI (CAKI-1 renal): > 100 µM | TGI (SNB-75 CNS): > 100 µM | TGI (NCI/ADR-RES ovarian): > 100 µM | TGI (HCT-116 colon): > 100 µM | TGI (OVCAR-5 ovarian): > 100 µM | TGI (BT-549 breast): > 100 µM | TGI (CCRF-CEM leukemia): > 100 µM | TGI (A549 NSCLC): > 100 µM | TGI (COLO 205 colon): > 100 µM | TGI (U251 CNS): > 100 µM | TGI (ACHN renal): > 100 µM | TGI (TK-10 renal): > 100 µM | TGI (SF-295 CNS): > 100 µM | TGI (MDA-MB-231 breast): > 100 µM | TGI (NCI-H460 lung): > 100 µM | TGI (HCT-15 colon): > 100 µM | TGI (SF-539 CNS): > 100 µM | TGI (NCI-H23 lung): > 100 µM | TGI (NCI-H226 lung): > 100 µM | TGI (SK-MEL-28 melanoma): > 100 µM | TGI (MCF7 breast): > 100 µM | TGI (RPMI-8226 leukemia): > 100 µM | TGI (HL-60(TB) leukemia): > 100 µM | TGI (DU-145 prostate): > 100 µM | TGI (SK-MEL-5 melanoma): > 100 µM | TGI (A498 renal): > 100 µM | TGI (KM12 colon): > 100 µM | TGI (HT29 colon): > 100 µM | TGI (SF-268 CNS): > 100 µM | TGI (OVCAR-8 ovarian): > 100 µM | TGI (HOP-62 NSCLC): > 100 µM | TGI (NCI-H522 lung): > 100 µM | TGI (RXF 393 renal): > 100 µM
